{"source": "patent US7737118B2", "about": "“Rotational intrathecal analgesia” (Omeros Corporation, priority 2001, dated 2010)", "type_in_all_cases": "in vivo", "key": {"[1]": {"tested_on": "male Sprague-Dawley rats", "assay": "Rat HWL study, both types of stimulation: analgesia and development of complete tolerance", "conditions": "drug alone, intrathecal every 12 hrs; mechanical and thermal HWL", "protocol": "Experiments were performed on male Sprague-Dawley rats having a weight of 200-250 g. The rats were housed in cages with free access to food and water. Room temperature was maintained at 24±2° C. and a 12 hr light/dark cycle was maintained. All experiments were conducted according to the guidelines of the Committee on Animal Research at the University of California at San Francisco. Every effort was made to minimize animal suffering.\nA polyethylene catheter (Intramedic PE 10) was permanently implanted intrathecally with the inner tip at L3 to L5 in each animal. Rats displaying movement disorders following placement of the catheter were not used in the study. […]\nIn the morphine only group, 8 μg morphine HCl was injected every 12 hrs until complete tolerance developed and in the nociceptin only group, 10 nmol nociceptin was injected every 12 hrs until complete tolerance developed. These doses were chosen from previous studies that determined an equianalgesic dosing for these two drugs. […]\nThe rats were trained with the testing conditions for five days prior to the experiments to decrease the stress response caused by handling and measurements and to obtain baseline responses. The hindpaw withdrawal latency (HWL) was measured for both thermal and mechanical stimulation. […] The HWLs were measured 15 min after the second intrathecal injection on a daily basis. […]"}, "[2]": {"tested_on": "male Sprague-Dawley rats", "assay": "Rat hindpaw withdrawal latency (HWL) to mechanical stimulation (Randall Selitto Test)", "conditions": "for % Changes of HWL to Mechanical Stimulation 10 Minutes After Intrathecal Injection, Left: Left hindpaw; for % Changes of HWL to Mechanical Stimulation 10 Minutes After Intrathecal Injection, Right: Right hindpaw"}, "[3]": {"tested_on": "male Sprague-Dawley rats", "assay": "Rat hindpaw withdrawal latency (HWL) to thermal stimulation (hot-plate test, 52° C.)", "conditions": "for % Changes of HWL to Thermal Stimulation 10 Minutes After Intrathecal Injection, Left: Left hindpaw; for % Changes of HWL to Thermal Stimulation 10 Minutes After Intrathecal Injection, Right: Right hindpaw"}, "[4]": {"conditions": "day 1, intrathecal every 12 hrs: 8 μg morphine, 10 nmol nociceptin, or rotated every two days"}, "[5]": {"conditions": "day 2, intrathecal every 12 hrs: 8 μg morphine, 10 nmol nociceptin, or rotated every two days"}, "[6]": {"conditions": "day 3, intrathecal every 12 hrs: 8 μg morphine, 10 nmol nociceptin, or rotated every two days"}, "[7]": {"conditions": "day 4, intrathecal every 12 hrs: 8 μg morphine, 10 nmol nociceptin, or rotated every two days"}, "[8]": {"conditions": "day 5, intrathecal every 12 hrs: 8 μg morphine, or morphine/nociceptin rotated every two days"}, "[9]": {"conditions": "day 6, intrathecal every 12 hrs: 8 μg morphine, or morphine/nociceptin rotated every two days"}, "[10]": {"conditions": "day 1, drug alone, intrathecal (morphine 8 μg or nociceptin 10 nmol every 12 hrs)"}}, "data": [{"compound": "CN1CC[C@]23c4c5ccc(O)c4O[C@H]2[C@@H](O)C=C[C@H]3[C@H]1C5.Cl", "note": "[Morphine, morphine HCl]", "values": [{"measurement": "day by which total/complete tolerance exists", "setting": "[1]", "result": 6, "unit": "days"}, {"measurement": "% Changes of HWL to Mechanical Stimulation 10 Minutes After Intrathecal Injection, Left", "setting": "[2]; [4]", "result": "53.99 ± 2.96", "unit": "%"}, {"measurement": "% Changes of HWL to Mechanical Stimulation 10 Minutes After Intrathecal Injection, Left", "setting": "[2]; [5]", "result": "47.69 ± 2.54", "unit": "%"}, {"measurement": "% Changes of HWL to Mechanical Stimulation 10 Minutes After Intrathecal Injection, Left", "setting": "[2]; [6]", "result": "33.85 ± 1.60", "unit": "%"}, {"measurement": "% Changes of HWL to Mechanical Stimulation 10 Minutes After Intrathecal Injection, Left", "setting": "[2]; [7]", "result": "31.37 ± 2.02", "unit": "%"}, {"measurement": "% Changes of HWL to Mechanical Stimulation 10 Minutes After Intrathecal Injection, Left", "setting": "[2]; [8]", "result": "15.30 ± 1.39", "unit": "%"}, {"measurement": "% Changes of HWL to Mechanical Stimulation 10 Minutes After Intrathecal Injection, Left", "setting": "[2]; [9]", "result": "3.26 ± 1.86", "unit": "%"}, {"measurement": "% Changes of HWL to Mechanical Stimulation 10 Minutes After Intrathecal Injection, Right", "setting": "[2]; [4]", "result": "56.04 ± 3.38", "unit": "%"}, {"measurement": "% Changes of HWL to Mechanical Stimulation 10 Minutes After Intrathecal Injection, Right", "setting": "[2]; [5]", "result": "46.74 ± 2.52", "unit": "%"}, {"measurement": "% Changes of HWL to Mechanical Stimulation 10 Minutes After Intrathecal Injection, Right", "setting": "[2]; [6]", "result": "33.44 ± 1.03", "unit": "%"}, {"measurement": "% Changes of HWL to Mechanical Stimulation 10 Minutes After Intrathecal Injection, Right", "setting": "[2]; [7]", "result": "28.84 ± 2.73", "unit": "%"}, {"measurement": "% Changes of HWL to Mechanical Stimulation 10 Minutes After Intrathecal Injection, Right", "setting": "[2]; [8]", "result": "16.54 ± 1.26", "unit": "%"}, {"measurement": "% Changes of HWL to Mechanical Stimulation 10 Minutes After Intrathecal Injection, Right", "setting": "[2]; [9]", "result": "2.72 ± 1.94", "unit": "%"}, {"measurement": "HWL increase using mechanical stimulation", "setting": "[2]; [10]", "result": "~55", "unit": "%"}, {"measurement": "% Changes of HWL to Thermal Stimulation 10 Minutes After Intrathecal Injection, Left", "setting": "[3]; [4]", "result": "66.26 ± 2.20", "unit": "%"}, {"measurement": "% Changes of HWL to Thermal Stimulation 10 Minutes After Intrathecal Injection, Left", "setting": "[3]; [5]", "result": "61.25 ± 3.05", "unit": "%"}, {"measurement": "% Changes of HWL to Thermal Stimulation 10 Minutes After Intrathecal Injection, Left", "setting": "[3]; [6]", "result": "51.66 ± 1.73", "unit": "%"}, {"measurement": "% Changes of HWL to Thermal Stimulation 10 Minutes After Intrathecal Injection, Left", "setting": "[3]; [7]", "result": "43.63 ± 1.38", "unit": "%"}, {"measurement": "% Changes of HWL to Thermal Stimulation 10 Minutes After Intrathecal Injection, Left", "setting": "[3]; [8]", "result": "23.85 ± 1.03", "unit": "%"}, {"measurement": "% Changes of HWL to Thermal Stimulation 10 Minutes After Intrathecal Injection, Left", "setting": "[3]; [9]", "result": "−1.30 ± 2.36", "unit": "%"}, {"measurement": "% Changes of HWL to Thermal Stimulation 10 Minutes After Intrathecal Injection, Right", "setting": "[3]; [4]", "result": "66.66 ± 1.51", "unit": "%"}, {"measurement": "% Changes of HWL to Thermal Stimulation 10 Minutes After Intrathecal Injection, Right", "setting": "[3]; [5]", "result": "63.11 ± 0.64", "unit": "%"}, {"measurement": "% Changes of HWL to Thermal Stimulation 10 Minutes After Intrathecal Injection, Right", "setting": "[3]; [6]", "result": "48.74 ± 2.40", "unit": "%"}, {"measurement": "% Changes of HWL to Thermal Stimulation 10 Minutes After Intrathecal Injection, Right", "setting": "[3]; [7]", "result": "42.45 ± 1.70", "unit": "%"}, {"measurement": "% Changes of HWL to Thermal Stimulation 10 Minutes After Intrathecal Injection, Right", "setting": "[3]; [8]", "result": "25.07 ± 2.07", "unit": "%"}, {"measurement": "% Changes of HWL to Thermal Stimulation 10 Minutes After Intrathecal Injection, Right", "setting": "[3]; [9]", "result": "0.51 ± 1.61", "unit": "%"}, {"measurement": "HWL increase using thermal stimulation", "setting": "[3]; [10]", "result": "approximately 67%"}]}]}
